Laboratory results: ChEMBL document CHEMBL4706479, “Novel Aryloxyethyl Derivatives of 1-(1-Benzoylpiperidin-4-yl)methanamine as the Extracellular Regulated Kinases 1/2 (ERK1/2) Phosphorylation-Preferring Serotonin 5-HT Receptor-Biased Agonists with Robust Antidepressant-like Activity” (J Med Chem, 2019)

Tests used:
[1] = target: D(2) dopamine receptor (Homo sapiens, UniProt P14416); assay: Displacement of [3H]-methylspiperone from recombinant human D2 receptor stably expressed in CHO-K1 cell membranes measured after 60 mins by microbeta2 scintillation counting method; parameters: species or system Cell membrane
D(2) dopamine receptor, sequence (P14416 whole entry): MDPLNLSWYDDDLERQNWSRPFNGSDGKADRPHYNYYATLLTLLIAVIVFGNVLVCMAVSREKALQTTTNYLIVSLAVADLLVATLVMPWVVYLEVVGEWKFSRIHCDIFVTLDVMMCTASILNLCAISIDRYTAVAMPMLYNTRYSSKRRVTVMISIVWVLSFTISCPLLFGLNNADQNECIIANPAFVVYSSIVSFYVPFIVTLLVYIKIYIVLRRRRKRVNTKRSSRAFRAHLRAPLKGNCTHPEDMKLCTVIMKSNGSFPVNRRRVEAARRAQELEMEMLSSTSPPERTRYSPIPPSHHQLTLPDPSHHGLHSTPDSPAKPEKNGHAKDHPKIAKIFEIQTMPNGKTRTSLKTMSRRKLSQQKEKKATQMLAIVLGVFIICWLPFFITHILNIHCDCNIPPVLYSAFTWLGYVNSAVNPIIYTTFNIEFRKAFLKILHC

[2] = target: T1, 5-hydroxytryptamine receptor 1A (Homo sapiens, UniProt P08908); assay: Displacement of [3H]8-OH-DPAT from recombinant human 5HT1A receptor stably expressed in CHO-K1 cell membranes measured after 60 mins by microbeta2 scintillation counting method; parameters: species or system Cell membrane
T1 sequence (P08908 whole entry): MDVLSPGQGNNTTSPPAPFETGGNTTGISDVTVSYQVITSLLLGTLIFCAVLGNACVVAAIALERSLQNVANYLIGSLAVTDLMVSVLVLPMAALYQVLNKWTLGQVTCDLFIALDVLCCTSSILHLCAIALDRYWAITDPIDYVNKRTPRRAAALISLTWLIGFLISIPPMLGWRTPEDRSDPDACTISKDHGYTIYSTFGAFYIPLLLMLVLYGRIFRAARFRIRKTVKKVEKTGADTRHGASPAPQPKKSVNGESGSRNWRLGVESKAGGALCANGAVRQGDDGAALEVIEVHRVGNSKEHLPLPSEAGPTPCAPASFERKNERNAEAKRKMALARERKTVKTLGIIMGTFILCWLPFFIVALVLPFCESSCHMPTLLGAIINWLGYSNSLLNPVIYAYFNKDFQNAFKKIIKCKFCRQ

[3] = target: T2, Adrenergic receptor alpha-1 (Rattus norvegicus, UniProt P15823+P23944+P43140); assay: Displacement of [3H]-prazosin from alpha1 adrenergic receptor in rat cortex measured after 30 mins by microbeta2 scintillation counting method; assay type: tissue-based
T2 sequence (P15823 whole entry): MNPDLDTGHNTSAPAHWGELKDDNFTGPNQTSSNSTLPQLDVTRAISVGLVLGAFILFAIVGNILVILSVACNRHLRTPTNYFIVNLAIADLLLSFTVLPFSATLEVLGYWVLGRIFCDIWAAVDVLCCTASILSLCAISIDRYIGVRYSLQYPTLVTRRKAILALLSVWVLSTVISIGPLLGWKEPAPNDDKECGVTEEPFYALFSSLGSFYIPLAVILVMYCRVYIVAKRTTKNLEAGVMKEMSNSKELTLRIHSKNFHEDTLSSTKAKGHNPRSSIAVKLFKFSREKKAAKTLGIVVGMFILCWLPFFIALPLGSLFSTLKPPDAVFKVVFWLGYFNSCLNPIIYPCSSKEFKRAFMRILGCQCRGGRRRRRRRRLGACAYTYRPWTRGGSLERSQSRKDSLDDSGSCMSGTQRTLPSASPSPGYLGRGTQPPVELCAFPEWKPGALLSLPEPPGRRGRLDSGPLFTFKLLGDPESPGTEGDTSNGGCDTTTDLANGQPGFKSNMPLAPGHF
T2 sequence (P23944 whole entry): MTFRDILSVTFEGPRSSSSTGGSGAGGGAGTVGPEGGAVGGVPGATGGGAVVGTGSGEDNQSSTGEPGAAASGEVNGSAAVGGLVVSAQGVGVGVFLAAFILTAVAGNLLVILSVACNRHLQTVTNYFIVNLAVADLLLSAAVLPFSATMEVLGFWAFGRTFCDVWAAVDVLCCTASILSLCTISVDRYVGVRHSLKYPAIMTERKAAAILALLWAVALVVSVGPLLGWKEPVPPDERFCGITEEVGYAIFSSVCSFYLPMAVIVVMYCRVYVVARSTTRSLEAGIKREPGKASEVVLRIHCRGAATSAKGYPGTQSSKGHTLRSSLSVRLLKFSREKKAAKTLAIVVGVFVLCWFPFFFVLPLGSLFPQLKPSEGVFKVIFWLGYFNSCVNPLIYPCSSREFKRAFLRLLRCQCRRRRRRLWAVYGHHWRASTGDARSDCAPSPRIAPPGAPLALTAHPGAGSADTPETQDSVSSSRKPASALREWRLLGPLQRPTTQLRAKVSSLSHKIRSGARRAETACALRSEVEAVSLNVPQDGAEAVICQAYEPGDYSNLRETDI
T2 sequence (P43140 whole entry): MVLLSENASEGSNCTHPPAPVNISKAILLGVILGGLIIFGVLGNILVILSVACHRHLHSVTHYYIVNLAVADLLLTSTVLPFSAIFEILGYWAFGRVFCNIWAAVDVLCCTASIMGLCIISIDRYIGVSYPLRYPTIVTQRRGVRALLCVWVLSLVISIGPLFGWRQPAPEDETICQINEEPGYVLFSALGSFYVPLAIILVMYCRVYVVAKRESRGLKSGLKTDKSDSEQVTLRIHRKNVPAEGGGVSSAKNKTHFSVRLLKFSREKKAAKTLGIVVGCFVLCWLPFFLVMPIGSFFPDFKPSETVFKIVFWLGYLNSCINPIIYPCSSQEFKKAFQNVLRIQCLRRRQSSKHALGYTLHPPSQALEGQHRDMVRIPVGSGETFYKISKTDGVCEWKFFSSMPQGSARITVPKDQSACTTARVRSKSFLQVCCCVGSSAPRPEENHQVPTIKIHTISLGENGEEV

[4] = Permeability of compound across basolateral to apical side in human Caco-2 cells at pH 7.4; assay type: ADME, cell-based; conditions: Caco-2, pH 7.4, read-out: permeability
[5] = in vitro; conditions: human, liver microsomes
[6] = test system: Rattus norvegicus; assay: Antidepressant-like activity in Wistar rat assessed as minimum effective dose causing reduction in immobility time administered intraperitoneally with compound 60 mins prior to testing and measured for 5 mins test period by Porsolt-forced swim test; assay type: functional; conditions: ip, 1.083 h, time 65 min, read-out: MED
[7] = test system: Rattus norvegicus; assay: Antidepressant-like activity in Wistar rat assessed as reduction in immobility time at 15 mg/kg, ip administered 60 mins prior to testing and measured for 5 mins test period by Porsolt-forced swim test; assay type: functional; parameters: scale not given: the % may be the effect or the level left; conditions: time 65 min, 1.083 h
[8] = target: T3, 5-hydroxytryptamine receptor 1A (Homo sapiens) (UniProt P08908); assay: Biased agonist activity at human recombinant 5-HT1A receptor stably expressed in CHO-K1 cells assessed as increase in ERK1/2 phosphorylation levels incubated for 15 mins by Alphalisa assay relative to serotonin; assay type: cell-based
T3 sequence (whole entry): T1 sequence (P08908 whole entry)

[9] = target: T3, 5-hydroxytryptamine receptor 1A (Homo sapiens); assay: Biased agonist activity at human recombinant 5-HT1A receptor stably expressed in CHO-K1 cells assessed as inhibition of forskolin-induced cAMP accumulation after 40 mins by LANCE Ultra cAMP kit-based TR-FRET assay relative to serotonin; assay type: functional, cell-based
[10] = target: T3, 5-hydroxytryptamine receptor 1A (Homo sapiens); assay: Biased agonist activity at Gal4-VP16 transcription factor linked human 5-HT1A receptor expressed in human U2OS cells assessed as stimulation of beta-arrestin recruitment measured after 5 hrs by Tango assay relative to serotonin; assay type: cell-based
[11] = target: T3, 5-hydroxytryptamine receptor 1A (Homo sapiens); assay: Biased agonist activity at human recombinant 5-HT1A receptor stably expressed in CHO-K1 cells assessed as increase in calcium mobilization measured at 2 sec intervals for 180 secs by Fluo-4AM dye based fluorescence assay relative to serotonin; assay type: functional, cell-based; conditions: time 180.0 sec
[12] = target: T3, 5-hydroxytryptamine receptor 1A (Homo sapiens); assay: Bias factor, ratio of biased agonist activity at human recombinant 5-HT1A receptor stably expressed in CHO-K1 cells assessed as increase in ERK1/2 phosphorylation levels to biased agonist activity at human recombinant 5-HT1A receptor stably expressed in CHO-K1 cells assessed as inhibition of forskolin-induced cAMP accumulation; assay type: functional, cell-based
[13] = target: T1, 5-hydroxytryptamine receptor 1A; assay: Biased agonist activity at human recombinant 5-HT1A receptor stably expressed in CHO-K1 cells assessed as increase in ERK1/2 phosphorylation levels incubated for 15 mins by Alphalisa assay; assay type: cell-based
[14] = target: T1, 5-hydroxytryptamine receptor 1A; assay: Biased agonist activity at human recombinant 5-HT1A receptor stably expressed in CHO-K1 cells assessed as inhibition of forskolin-induced cAMP accumulation after 40 mins by LANCE Ultra cAMP kit-based TR-FRET assay; assay type: functional, cell-based
[15] = target: T3, 5-hydroxytryptamine receptor 1A (Homo sapiens); assay: (§1) Bias factor, ratio of biased agonist activity at human recombinant 5-HT1A receptor stably expressed in CHO-K1 cells assessed as increase in ERK1/2 phosphorylation levels to biased agonist activity at Gal4-VP16 transcription factor linked human 5-HT1A receptor expressed in human U2OS cells assessed as stimulation of beta-arrestin recruitment; assay type: cell-based
[16] = target: T3, 5-hydroxytryptamine receptor 1A (Homo sapiens); assay: as §1, with “inhibition of forskolin-induced cAMP accumulation” for “increase in ERK1/2 phosphorylation levels”; assay type: functional, cell-based
[17] = target: T1, 5-hydroxytryptamine receptor 1A; assay: Biased agonist activity at human recombinant 5-HT1A receptor stably expressed in CHO-K1 cells assessed as increase in calcium mobilization measured at 2 sec intervals for 180 secs by Fluo-4AM dye based fluorescence assay; assay type: functional, cell-based
[18] = test system: Rattus norvegicus; assay: Antidepressant-like activity in Wistar rat assessed as minimum effective dose causing reduction in immobility time after oral administration with compound 60 mins prior to testing and measured for 5 mins test period by Porsolt-forced swim test; assay type: functional; conditions: 1.083 h, time 65 min, read-out: MED
[19] = test system: Rattus norvegicus; assay: Antidepressant-like activity in Wistar rat assessed as maximum effective dose causing reduction in immobility time after oral administration with compound 60 mins prior to testing and measured for 5 mins test period by Porsolt-forced swim test; assay type: functional; conditions: time 65 min; 1.083 h

In the case of `O=C(c1ccc(F)c(Cl)c1)N1CCC(F)(CNCCOc2ccncc2)CC1`, the Ki [1] is reported as greater than 1000 nM, the Ki [2] is reported as 389 nM and the pKi [3] is reported as less than 6.

In the case of `CC(C)NCC(O)COc1cccc2ccccc12` (configuration not stated) [PROPRANOLOL], the Papp B→A [4] is reported as 27.4 ×10⁻⁶ cm/s and the half-life at 0.1 µM [5] is reported as greater than 1 h.

Work on `CNC1(c2ccccc2Cl)CCCCC1=O` (configuration not stated) [KETAMINE] yielded a minimal effective dose [6] of 5 mg/kg and an Activity [7] of 43%.

`O=C(c1ccc(F)c(Cl)c1)N1CCC(F)(CNCCNc2ccccc2)CC1` showed a pKi [3] of less than 6, an Emax ([8]; filed as agonist) of 81% and an Emax ([9]; filed as agonist) of 79%. The Emax ([10]; filed as agonist) was 104% and the Emax ([11]; filed as partial agonist) was 65%.

In the case of `O=C(c1ccc(F)c(Cl)c1)N1CCC(F)(CNCCNc2ccccn2)CC1`, the Emax ([9]; filed as agonist) is reported as 86%, the Emax ([10]; filed as agonist) is reported as 99% and the Emax ([11]; filed as partial agonist) is reported as 52%.

`O=C(c1ccc(F)c(Cl)c1)N1CCC(F)(CNCCOc2cncnc2)CC1` gave a Ki [1] greater than 1000 nM, a Ki [2] of 209 nM and a pKi [3] of less than 6.

`O=C(c1ccc(F)c(Cl)c1)N1CCC(F)(CNCCSc2ccccc2)CC1` showed a Ki [1] greater than 1000 nM, a Ki [2] of 0.562 nM and a Ratio [12] of 1.27. For the same compound, the Emax ([8]; filed as partial agonist) was 85%, the EC50 [13] was 170 nM and the Emax ([9]; filed as partial agonist) was 71%. It also gave an EC50 [14] of 2450 nM, an Emax ([10]; filed as partial agonist) of 70% and a Ratio [15] of 0.82. The Ratio [16] was -0.45.

`O=C(c1ccc(F)c(Cl)c1)N1CCC(F)(CNCCCc2ccccn2)CC1` showed an Emax ([9]; filed as partial agonist) of 74%, an Emax ([10]; filed as agonist) of 101% and an Emax ([11]; filed as agonist) of 87%.

Work on `Cc1cnc(OCCNCC2(F)CCN(C(=O)c3ccc(F)c(Cl)c3)CC2)nc1` yielded a pKi [3] of less than 6, an Emax ([8]; filed as partial agonist) of 72% and an Emax ([9]; filed as partial agonist) of 41%. For the same compound, the Emax ([10]; filed as partial agonist) was 75%.

`Cc1cnc(CNCC2(F)CCN(C(=O)c3ccc(F)c(Cl)c3)CC2)nc1` showed a Ki [1] greater than 1000 nM, a Ki [2] of 2.19 nM and an EC50 [13] of 4.68 nM. For the same compound, the EC50 [14] was 60.3 nM, the EC50 [17] was 245 nM and the minimal effective dose [18] was 0.63 mg/kg. The ED [19] was 5 mg/kg.
